Converted amounts (≈) assume the structure as drawn.
Tests used:
Experiment in all cases: minimal inhibitory concentration, two-fold agar dilution
Assay type in all cases: cell-based
[1] = test system: Pseudomonas aeruginosa ATCC 10145; details: ATCC10145, Muller-Hinton agar, 37°C, 20 hours, read-out: MIC values against the standard strains
How it was run: (§1)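 Compounds were serially diluted two-fold into Mueller-Hinton agar, and each plate was spot-inoculated with the test strain at 10⁷ CFU per ml. Plates were incubated at 37°C for 20 hours before MIC values were read.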

[2] = test system: Escherichia coli ATCC 25922; details: ATCC25922, Muller-Hinton agar, 37°C, 20 hours, read-out: MIC values against the standard strains
How it was run: as §1

[3] = test system: Staphylococcus epidermidis ATCC 12228; details: ATCC12228, Muller-Hinton agar, 37°C, 20 hours, read-out: MIC values against the standard strains
How it was run: as §1

[4] = test system: Proteus vulgaris ATCC 6059; details: ATCC6059, Muller-Hinton agar, 37°C, 20 hours, read-out: MIC values against the standard strains
How it was run: as §1

[5] = test system: Acinetobacter calcoaceticus ATCC 15437; details: ATCC15437, Muller-Hinton agar, 37°C, 20 hours, read-out: MIC values against the standard strains
How it was run: as §1

[6] = test system: Serratia marcescens ATCC 27117; details: ATCC27117, Muller-Hinton agar, 37°C, 20 hours, read-out: MIC values against the standard strains
How it was run: as §1

[7] = test system: Pseudomonas aeruginosa ATCC 27853; details: ATCC27853, Muller-Hinton agar, 37°C, 20 hours, read-out: MIC values against the standard strains
How it was run: as §1

[8] = test system: Providencia rettgeri ATCC 9250; details: ATCC9250, Muller-Hinton agar, 37°C, 20 hours, read-out: MIC values against the standard strains
How it was run: as §1

[9] = test system: Staphylococcus aureus ATCC 10537; details: ATCC10537, Muller-Hinton agar, 37°C, 20 hours, read-out: MIC values against the standard strains
How it was run: as §1

[10] = test system: Bacillus cereus ATCC 11778; details: ATCC11778, Muller-Hinton agar, 37°C, 20 hours, read-out: MIC values against the standard strains
How it was run: as §1

[11] = test system: Klebsiella pneumoniae ATCC 10031; details: ATCC10031, Muller-Hinton agar, 37°C, 20 hours, read-out: MIC values against the standard strains
How it was run: as §1

[12] = test system: Micrococcus luteus ATCC 9341; details: ATCC9341, Muller-Hinton agar, 37°C, 20 hours, read-out: MIC values against the standard strains
How it was run: as §1

[13] = test system: Shigella flexneri ATCC 11836; details: ATCC11836, Muller-Hinton agar, 37°C, 20 hours, read-out: MIC values against the standard strains
How it was run: as §1

[14] = test system: Streptococcus faecalis ATCC 29212; details: Enterococcus faecalis, ATCC29212; Muller-Hinton agar; 37°C; 20 hours; read-out: MIC values against the standard strains
How it was run: as §1

[15] = test system: Bacillus megaterium ATCC 9885; details: Priestia megaterium, ATCC9885; Muller-Hinton agar; 37°C; 20 hours; read-out: MIC values against the standard strains
How it was run: as §1

[16] = test system: Enterobacter cloacae ATCC 27508; details: ATCC27508, Muller-Hinton agar, 37°C, 20 hours, read-out: MIC values against the standard strains
How it was run: as §1

[17] = test system: Proteus mirabilis ATCC 25933; details: ATCC25933, Muller-Hinton agar, 37°C, 20 hours, read-out: MIC values against the standard strains
How it was run: as §1

[18] = test system: Citrobacter freundii ATCC 8090; details: ATCC8090, Muller-Hinton agar, 37°C, 20 hours, read-out: MIC values against the standard strains
How it was run: as §1

[19] = test system: Salmonella typhimurium ATCC 14028; details: Salmonella enterica; Muller-Hinton agar; 37°C; 20 hours; read-out: MIC values against the standard strains
How it was run: as §1

[20] = test system: Enterobacter aerogenes ATCC 29751; details: Klebsiella aerogenes, ATCC29751; Muller-Hinton agar; 37°C; 20 hours; read-out: MIC values against the standard strains
How it was run: as §1

[21] = test system: Staphylococcus aureus ATCC 6538p; details: ATCC6538P, Muller-Hinton agar, 37°C, 20 hours, read-out: MIC values against the standard strains
How it was run: as §1

[22] = test system: Escherichia coli ATCC 10536; details: ATCC10536, Muller-Hinton agar, 37°C, 20 hours, read-out: MIC values against the standard strains
How it was run: as §1

[23] = test system: Shigella sonnei ATCC 11060; details: ATCC11060, Muller-Hinton agar, 37°C, 20 hours, read-out: MIC values against the standard strains
How it was run: as §1

[24] = test system: Morganella morganii ATCC 8076h; details: ATCC8076H, Muller-Hinton agar, 37°C, 20 hours, read-out: MIC values against the standard strains
How it was run: as §1

[25] = test system: Pseudomonas aeruginosa ATCC 25619; details: ATCC25619, Muller-Hinton agar, 37°C, 20 hours, read-out: MIC values against the standard strains
How it was run: as §1

Compound	MIC [1] [µg/mL]	MIC [2] [µg/mL]	MIC [3] [µg/mL]	MIC [4] [µg/mL]	MIC [5] [µg/mL]	MIC [6] [µg/mL]	MIC [7] [µg/mL]	MIC [8] [µg/mL]	MIC [9] [µg/mL]	MIC [10] [µg/mL]	MIC [11] [µg/mL]	MIC [12] [µg/mL]	MIC [13] [µg/mL]	MIC [14] [µg/mL]	MIC [15] [µg/mL]	MIC [16] [µg/mL]	MIC [17] [µg/mL]	MIC [18] [µg/mL]	MIC [19] [µg/mL]	MIC [20] [µg/mL]	further results
C[n+]1ccc(N)nc1SCC1=C(C(=O)[O-])N2C(=O)[C@@H](NC(=O)/C(=N\O)c3csc(N)n3)[C@H]2SC1 [Example 10, 7-[(Z)-2-(2-aminothiazol-4-yl)-2-oxyiminoacetamido]-3-(4-amino-1-methylpyrimidinium-2-yl)thiomethyl-3-cephem-4-carboxylate]	> 128	0.25 (≈ 0.478 µM)	0.063 (≈ 0.121 µM)	1 (≈ 1.91 µM)	0.063 (≈ 0.121 µM)	0.5 (≈ 0.957 µM)	> 128	≤ 0.008	0.25 (≈ 0.478 µM)	32 (≈ 61.2 µM)	0.25 (≈ 0.478 µM)	0.25 (≈ 0.478 µM)	0.016 (≈ 0.0306 µM)	8 (≈ 15.3 µM)	0.13 (≈ 0.249 µM)	0.016 (≈ 0.0306 µM)	0.25 (≈ 0.478 µM)	0.063 (≈ 0.121 µM)	0.5 (≈ 0.957 µM)	0.063 (≈ 0.121 µM)	MIC [21]: 0.5 µg/mL (≈ 0.957 µM); MIC [22]: 0.25 µg/mL (≈ 0.478 µM); MIC [23]: 1 µg/mL (≈ 1.91 µM); MIC [24]: 0.016 µg/mL (≈ 0.0306 µM); MIC [25]: 128 µg/mL (≈ 245 µM)
CO/N=C(\C(=O)N[C@@H]1C(=O)N2C(C(=O)[O-])=C(CSc3nc(N)c(N)c(N)[n+]3C)CS[C@H]12)c1csc(N)n1 [Example 7, 7-[(Z)-2-(2-aminothiazol-4-yl)-2-(methoxyimino)acetamido]-3-(4,5,6-triamino-1-methylpyrimidinium-2-yl)thiomethyl-3-cephem-4-carboxylate]	32 (≈ 56.5 µM)	0.063 (≈ 0.111 µM)	0.13 (≈ 0.229 µM)	0.13 (≈ 0.229 µM)	4 (≈ 7.06 µM)	0.13 (≈ 0.229 µM)	32 (≈ 56.5 µM)	≤ 0.008	0.13 (≈ 0.229 µM)	16 (≈ 28.2 µM)	0.016 (≈ 0.0282 µM)	0.063 (≈ 0.111 µM)	0.031 (≈ 0.0547 µM)	128 (≈ 226 µM)	0.13 (≈ 0.229 µM)	0.063 (≈ 0.111 µM)	0.13 (≈ 0.229 µM)	0.063 (≈ 0.111 µM)	0.13 (≈ 0.229 µM)	≤ 0.008	MIC [21]: 0.13 µg/mL (≈ 0.229 µM); MIC [22]: 0.063 µg/mL (≈ 0.111 µM); MIC [23]: 0.13 µg/mL (≈ 0.229 µM); MIC [24]: ≤ 0.008 µg/mL; MIC [25]: 4 µg/mL (≈ 7.06 µM)
C[n+]1c(SCC2=C(C(=O)[O-])N3C(=O)[C@@H](NC(=O)/C(=N\OC(C)(C)C(=O)O)c4csc(N)n4)[C@H]3SC2)nc(N)c(N)c1N [Example 1]	2 (≈ 3.13 µM)	0.063 (≈ 0.0986 µM)	2 (≈ 3.13 µM)	0.063 (≈ 0.0986 µM)	8 (≈ 12.5 µM)	0.25 (≈ 0.391 µM)	1 (≈ 1.57 µM)	≤ 0.008	2 (≈ 3.13 µM)	128 (≈ 200 µM)	0.063 (≈ 0.0986 µM)	0.25 (≈ 0.391 µM)	0.031 (≈ 0.0485 µM)	> 128	0.25 (≈ 0.391 µM)	0.016 (≈ 0.0251 µM)	0.063 (≈ 0.0986 µM)	0.13 (≈ 0.204 µM)	0.25 (≈ 0.391 µM)	2 (≈ 3.13 µM)	MIC [21]: 8 µg/mL (≈ 12.5 µM); MIC [22]: 0.13 µg/mL (≈ 0.204 µM); MIC [23]: 0.13 µg/mL (≈ 0.204 µM); MIC [24]: ≤ 0.008 µg/mL; MIC [25]: 1 µg/mL (≈ 1.57 µM)

— EP0584797A2, “Novel cephalosporin compounds and processes for the preparation thereof” (LUCKY LTD., priority 1992, dated 1994)
